# Legend:
# [1] = system: Toll-like receptor (TLR) 2; assay: TLR2 expression in RAW 264.7 by Western blotting; type: cell-based, mouse; conditions: vardenafil 5 μM, EGCG 10 μM added after 3 hours, 24 hours, untreated = 100
# Experimental: A mouse macrophage cell line, RAW 264.7, was seeded in a 5-mL dish at 1×10^5 cells/mL and was pre-cultured in a DMEM medium supplemented with 1% FCS for 24 hours. Subsequently, vardenafil was added thereto at a concentration of 5 μM. After 3 hours, EGCG was added thereto at a concentration of 0 μM or 10 μM. After 24 hours, the cells were collected, and the expressions of Toll-like receptor (TLR) 2 and TLR 4 were measured by Western blotting.
# [2] = system: human multiple myeloma cell line, U266; assay: Involvement of 67LR (anti-67LR antibody MLuc5) in cell-killing and cytostatic activity, U266; type: cell-based; conditions: U266, 96-well; vardenafil 5 μM, EGCG 5 μM; 96 hours; without anti-67LR antibody (isotype control mouse IgM)
# Experimental: A trypan blue staining solution was prepared by suspending trypan blue in PBS at a concentration of 1% and was used in investigation of the anti-cancer activity of a combination of EGCG and vardenafil by trypan blue assay. The PBS used was prepared by dissolving 8.0 g of NaCl, 0.2 g of KCl, 1.15 g of Na2HPO4, and 0.2 g of KH2PO4 in 1 L of ultrapure water, followed by autoclave sterilization.
# A human multiple myeloma cell line, U266, and a human acute myeloid leukemia cell line, HL60, adjusted to be 5×10^4 cells/mL (U266) and 1×10^4 cells/mL (HL60), respectively, in an RPMI 1640 medium supplemented with 1% FCS were seeded in a 96-well plate (Falcon Co., Ltd.). Vardenafil was added thereto at a final concentration of 5 μM. Immediately after the addition, an anti-67LR monoclonal antibody, MLuc5 (Abcam PLC), was added thereto at a final concentration of 20 μg/mL. In the group of adding an isotype control antibody, mouse IgM (Cosmo Bio Co., Ltd., Tokyo) was added at a final concentration of 20 μg/mL. […]
# The plate was returned to the incubator immediately after the addition of EGCG, followed by culturing for 96 hours. […] After 10 minutes, the number of the cells was counted with a hemocytometer. Unstained cells were deemed as viable cells, and the cell viability was determined as a ratio of the number of unstained cells in trypan blue staining to the total number of cells. […]
# [3] = system: mouse plasmacytoma cell line, MPC11, transplanted to Balb/c mice; assay: Tumor formation of MPC11 transplanted to Balb/c mice; type: in vivo; conditions: MPC11 s.c., EGCG 15 mg/kg i.p., vardenafil 5 mg/kg i.p., once every two days from day 4
# Experimental: Furthermore, 5-week old female balb/c mice were preliminarily bred for one week and were then inoculated with a mouse multiple myeloma cell line, MPC11, by subcutaneous injection, in the right back, of […] of a suspension of 5×10^7 cells/mL of the cells in an RPMI medium. After 4 days from the inoculation, EGCG (15 mg/kg i.p.) and vardenafil (5 mg/kg i.p.) were administered once every two days, and the tumor volume was measured with varnier clipers. In the graph, EGCG and VDN indicate single administration of EGCG and vardenafil, respectively, and EGCG/Vardenafil indicates combination administration of EGCG and vardenafil.
substance,measurement,setting,value
(−)-epigallocatechin-3-O-gallate [EGCG],TLR2 expression level(%),[1],90%
same,cell viability (cell-killing activity),[2],any cytotoxicity was not observed
same,tumor formation (tumor volume),[3],any inhibitory action on tumor formation of the mouse plasmacytoma cell line was not observed

# Source: patent publication US20160000750A1, “COMBINATION OF EGCG OR METHYLATED EGCG AND A PDE INHIBITOR” (KYUSHU UNIVERSITY, NATIONAL UNIVERSITY CORPORATION, priority 2010, published 2016)
